Results published in patent US9718792B2, “Isoxazoline hydroxamic acid derivatives as LpxC inhibitors” (priority 2014, dated 2017).
In brackets after ≈: the same amount, converted by molar mass. Where two headings read alike, the source gives them in different places.

How the values were obtained:
P. aeruginosa PAO1 = assay: Susceptibility Testing (MIC, broth microdilution); type: cell-based, Pseudomonas aeruginosa; conditions: Pseudomonas aeruginosa, PAO1, 20 h, read-out: PAO1 MIC
Experimental: Bacterial isolates were cultivated from −70° C. frozen stocks by two consecutive overnight passages at 35° C. in ambient air on 5% blood agar (Remel, Lenexa, Kans.). Quality control and P. aeruginosa ATCC 27853) is from the American Type Culture Collection (ATCC; Rockville, Md.) and PAO1 was received from Dr. K. Poole.
Minimal Inhibitory Concentrations (MICs) were determined by the broth microdilution method in accordance with Clinical and Laboratories Institute (CLSI) guidelines. In brief, fresh bacterial overnight cultures were resuspended in sterile saline, adjusted to a 0.5 McFarland turbidity standard and then diluted […] in cation adjusted Mueller-Hinton Broth II (MHB; Remel BBL) to yield a final inoculum of approximately 5×10^5 colony-forming units (CFU)/mL. Two-fold serial dilutions of compounds were prepared in 100% dimethyl sulfoxide (DMSO) at 100-fold the highest final assay concentration; the resulting dilution series of compounds were diluted 1:10 with sterile water. Ten μl of the drug dilution series in 10% DMSO was transferred to microtiter wells and 90 μl of bacterial suspension was inoculated into the wells. All inoculated microdilution trays were incubated in ambient air at […] for 20 hours. Following incubation, assay plates were read in a microtiter plate reader at 600 nm and visually inspected to confirm the MIC endpoint well with the OD value. The lowest concentration of the compound that prevented visible growth was recorded as the MIC. Performance of the assay was monitored by testing ciprofloxacin against laboratory quality control strains in accordance with guidelines of the CLSI.

P. aeruginosa LpxC = P. aeruginosa LpxC (Pseudomonas aeruginosa (strain ATCC 15692 / DSM 22644 / CIP 104116 / JCM 14847 / LMG 12228 / 1C / PRS 101 / PAO1), UniProt P47205); assay: P. aeruginosa LpxC Inhibition Assay; type: biochemical; conditions: 1 nM P. aeruginosa LpxC, 2 μM substrate, LC-MS/MS; read-out: PA LpxC IC50
Description: The P. aeruginosa LpxC protein is produced according to the general method of Hyland et al (Journal of Bacteriology 1997 179, 2029-2037: Cloning, expression and purification of UDP-3-O-acyl-GIcNAc deacetylase from Pseudomonas aeruginosa: a metalloamidase of the lipid A biosynthesis pathway). The LC-MS/MS method for quantitation of LpxC product was developed using an Agilent 1200 Capillary HPLC system coupled to an Applied Biosystems MDS Sciex 4000QTRAP mass spectrometer. Both instruments are controlled using the Applied Biosystems MDS Sciex Analyst software. LpxC reaction product (UDP-3-O—(R-3-hydroxyacyl)-glucosamine) was produced by hydrolysis of LpxC substrate catalyzed by P.a. LpxC and purified using reversed phase chromatography on a Phenomenex Luna C18(2) 4.6×50 mm column. An LpxC product calibration curve was generated to evaluate the sensitivity and dynamic range of the LC-MS/MS method. Briefly, compounds are pre-incubated with 1 nM P. aeruginosa LpxC for 30 min. at room temperature. Reactions are initiated by the addition of 2 μM UDP-3-O—(R-3-hydroxydecanoyl)-GIcNAc. Reactions are conducted in a 384-well plate with a total volume of 50 μL in each well containing 50 mM Sodium phosphate pH 7.5, 0.005% Trition X-100 for 20 min at room temperature. After quenching with 1.8% HOAc (5 μL of a 20% HOAc added to each well), reaction mixtures are analyzed using the LC-MS/MS method and peak areas are transformed into product concentration using a LpxC product calibration curve. Total activity (0% inhibition control) is obtained from reactions with no inhibitors and 100% inhibition control is the background using quenched samples before reaction starts. For IC50 determinations, peak areas are converted to percent inhibition in Microsoft Excel. Percent inhibition values are plotted vs. log compound concentration using XLfit. Data is fit to the four-parameter logistic equation using the non-linear regression algorithm in XLfit to return the IC50 and hill slope values.

[1] = P. aeruginosa PAO1, broth microdilution, 20 hours

| Structure (SMILES) | MIC (P. aeruginosa PAO1; [1]) [µg/mL] | IC50 (P. aeruginosa LpxC) [pM] | MIC (P. aeruginosa PAO1) [µg/mL] |
| --- | --- | --- | --- |
| C[C@@](C[C@H]1CC(c2ccc(C#CC3CC(F)C3)cc2)=NO1)(C(=O)NO)S(C)(=O)=O (stereo partly drawn) [Compound 54, (R)-3-((R)-3-(4-((3-fluorocyclobutyl)ethynyl)phenyl)-4,5-dihydroisoxazol-5-yl)-N-hydroxy-2-methyl-2-(methylsulfonyl) propanamide] | 1 (≈ 2.37 µM) | 700 | – |
| CCc1cc(-c2ccc(C3=NO[C@@H](C[C@](C)(C(=O)NO)S(C)(=O)=O)C3)cc2)ccn1 [Compound 71, (R)-3-((R)-3-(4-(2-ethylpyridin-4-yl)phenyl)-4,5-dihydroisoxazol-5-yl)-N-hydroxy-2-methyl-2-(methylsulfonyl)propanamide] | 0.71 (≈ 1.65 µM) | 6000 | – |
| CC(C)(O)[C@H]1C[C@H](C#Cc2ccc(C3=NO[C@@H](C[C@](C)(C(=O)NO)S(C)(=O)=O)C3)cc2)C1 [Compound 39A, (R)—N-hydroxy-3-((R)-3-(4-(((1 r,3R)-3-(2-hydroxypropan-2-yl)cyclobutyl)ethynyl)phenyl)-4,5-dihydroisoxazol-5-yl)-2-methyl-2-(methylsulfonyl)propanamide] | 0.5 (≈ 1.08 µM) | 500 | – |
| Cc1cnccc1-c1ccc(C2=NO[C@@H](C[C@](C)(C(=O)NO)S(C)(=O)=O)C2)cc1 [Compound 85, (R)-3-((R)-3-(4-(3-methylpyridin-4-yl)phenyl)-4,5-dihydroisoxazol-5-yl)-N-hydroxy-2-methyl-2-(methylsulfonyl)propanamide] | 0.5 (≈ 1.2 µM) | < 500 | – |
| C[C@@](C[C@H]1CC(c2ccc(C#CC3CCOCC3)cc2)=NO1)(C(=O)NO)S(C)(=O)=O [Compound 98, (R)—N-hydroxy-2-methyl-2-(methylsulfonyl)-3-((R)-3-(4-((tetrahydro-2H-pyran-4-yl)ethynyl)phenyl)-4,5-dihydroisoxazol-5-yl)propanamide] | 2 (≈ 4.6 µM) | 600 | – |
| C[C@@](C[C@H]1CC(c2ccc(-c3ccnc(C(F)(F)F)c3)cc2)=NO1)(C(=O)NO)S(C)(=O)=O [Compound 70, (R)—N-hydroxy-2-methyl-2-(methylsulfonyl)-3-((R)-3-(4-(2-(trifluoromethyl)pyridin-4-yl)phenyl)-4,5-dihydroisoxazol-5-yl)] | 8 (≈ 17 µM) | 2000 | – |
| C[C@@](C[C@H]1CC(c2ccc(-c3ccc(-c4nn[nH]n4)cc3)c(F)c2)=NO1)(C(=O)NO)S(C)(=O)=O [Compound 114, (R)-3-((R)-3-(2-fluoro-4′-(2H-tetrazol-5-yl)-[1,1′-biphenyl]-4-yl)-4,5-dihydroisoxazol-5-yl)-N-hydroxy-2-methyl-2-(methylsulfonyl)propanamide] | 32 (≈ 65.5 µM) | < 500 | – |
| COCC(C)(O)c1ccc(-c2ccc(C3=NO[C@@H](C[C@](C)(C(=O)NO)S(C)(=O)=O)C3)cc2)cc1 (stereo partly drawn) [Compound 51, (2R)—N-hydroxy-3-((5R)-3-(4′-(2-hydroxy-1-methoxypropan-2-yl)-[1,1′-biphenyl]-4-yl)-4,5-dihydroisoxazol-5-yl)-2-methyl-2-(methylsulfonyl)propanamide] | 1.4 (≈ 2.85 µM) | 800 | – |
| CC(CC1CC(c2ccc(C#CC3CC3)cn2)=NO1)(C(=O)NO)S(C)(=O)=O (single isomer, unassigned) [Compound 15-B, 3-(3-(5-(cyclopropylethynyl)pyridin-2-yl)-4,5-dihydroisoxazol-5-yl)-N-hydroxy-2-methyl-2-(methylsulfonyl)propanamide] | 8 (≈ 20.4 µM) | 4000 | – |
| CC#CCOc1ccc(C2=NOC(CC(C)(C(=O)NO)S(C)(=O)=O)C2)cc1 (single isomer, unassigned) [Compound 4-B, 3-(3-(4-(but-2-yn-1-yloxy)phenyl)-4,5-dihydroisoxazol-5-yl)-N-hydroxy-2-methyl-2-(methylsulfonyl)propanamide] | – | 24000 | 8 (≈ 20.3 µM) |

The next lines start with results.

| MIC (P. aeruginosa PAO1; [1]) [µg/mL] | IC50 (P. aeruginosa LpxC) [pM] | Structure (SMILES) | MIC (P. aeruginosa PAO1) [µg/mL] |
| --- | --- | --- | --- |
| 0.5 (≈ 1.15 µM) | 800 | COC1CC(C#Cc2ccc(C3=NO[C@@H](C[C@](C)(C(=O)NO)S(C)(=O)=O)C3)cc2)C1 (stereo partly drawn) [Compound 44, (R)—N-hydroxy-3-((R)-3-(4-((3-methoxycyclobutyl)ethynyl)phenyl)-4,5-dihydroisoxazol-5-yl)-2-methyl-2-(methylsulfonyl)propanamide] | – |
| 0.16 (≈ 0.358 µM) | 500 | C[C@@](C[C@H]1CC(c2ccc(-c3ccc(CCO)cc3)cc2)=NO1)(C(=O)NO)S(C)(=O)=O [Compound 40, (R)—N-hydroxy-3-((R)-3-(4′-(2-hydroxyethyl)-[1,1′-biphenyl]-4-yl)-4,5-dihydroisoxazol-5-yl)-2-methyl-2-(methylsulfonyl)] | – |
| 0.25 (≈ 0.593 µM) | 500 | C[C@@](C[C@H]1CC(c2ccc(-c3ccncc3F)cc2)=NO1)(C(=O)NO)S(C)(=O)=O [Compound 42, (R)-3-((R)-3-(4-(3-fluoropyridin-4-yl)phenyl)-4,5-dihydroisoxazol-5-yl)-N-hydroxy-2-methyl-2-(methylsulfonyl)propanamide] | – |
| 0.25 (≈ 0.56 µM) | < 500 | Cc1cc(CO)ccc1-c1ccc(C2=NO[C@@H](C[C@](C)(C(=O)NO)S(C)(=O)=O)C2)cc1 [Compound 87, (R)—N-hydroxy-3-((R)-3-(4′-(hydroxymethyl)-2′-methyl-[1,1′-biphenyl]-4-yl)-4,5-dihydroisoxazol-5-yl)-2-methyl-2-(methylsulfonyl)propanamide] | – |
| 0.125 (≈ 0.306 µM) | < 500 | C[C@@](C[C@H]1CC(c2ccc(-c3ccsc3)cc2)=NO1)(C(=O)NO)S(C)(=O)=O [Compound 91, (R)—N-hydroxy-2-methyl-2-(methylsulfonyl)-3-((R)-3-(4-(thiophen-3-yl)phenyl)-4,5-dihydroisoxazol-5-yl)propanamide] | – |
| 0.25 (≈ 0.577 µM) | < 500 | COc1ccc(-c2ccc(C3=NO[C@@H](C[C@](C)(C(=O)NO)S(C)(=O)=O)C3)cc2)cn1 [Compound 66, (R)—N-hydroxy-3-((R)-3-(4-(6-methoxypyridin-3-yl)phenyl)-4,5-dihydroisoxazol-5-yl)-2-methyl-2-(methylsulfonyl)propanamide] | – |
| 0.25 (≈ 0.56 µM) | 1000 | C[C@H](O)c1ccc(-c2ccc(C3=NO[C@@H](C[C@](C)(C(=O)NO)S(C)(=O)=O)C3)cc2)cc1 [Compound 56, (R)—N-hydroxy-3-((R)-3-(4′-((S)-1-hydroxyethyl)-[1,1′-biphenyl]-4-yl)-4,5-dihydroisoxazol-5-yl)-2-methyl-2-(methylsulfonyl)] | – |
| 0.25 (≈ 0.541 µM) | < 100 | C[C@@](C[C@H]1CC(c2ccc(-c3ccc([C@@H](O)CO)cc3)cc2)=NO1)(C(=O)NO)S(C)(=O)=O [Compound 95, (R)-3-((R)-3-(4′-((R)-1,2-dihydroxyethyl)-[1,1′-biphenyl]-4-yl)-4,5-dihydroisoxazol-5-yl)-N-hydroxy-2-methyl-2-(methylsulfonyl)propanamide] | – |
| 0.33 (≈ 0.872 µM) | < 500 | CCC#Cc1ccc(C2=NO[C@@H](C[C@](C)(C(=O)NO)S(C)(=O)=O)C2)cc1 [Compound 62, (R)-3-((R)-3-(4-(but-1-yn-1-yl)phenyl)-4,5-dihydroisoxazol-5-yl)-N-hydroxy-2-methyl-2-(methylsulfonyl)propanamide] | – |
| 0.35 (≈ 0.855 µM) | < 500 | C[C@@](C[C@H]1CC(c2ccc(-c3cnsc3)cc2)=NO1)(C(=O)NO)S(C)(=O)=O [Compound 92, (R)—N-hydroxy-3-((R)-3-(4-(isothiazol-4-yl)phenyl)-4,5-dihydroisoxazol-5-yl)-2-methyl-2-(methylsulfonyl)propanamide] | – |
